Assay [1] relates to THP-1 cells (phagocytosis of opsonized Escherichia coli). As to the kind of experiment: Antibody-dependent phagocytosis assay. Format: cell-based. The settings on record: Homo sapiens; IFNγ differentiated THP-1 cells, opsonized pHrodo Escherichia coli, 3 hours; read-out: IC50 upon phagocytosis inhibition. The protocol: THP-1 cells (2×10^5 cells/ml), which were human monocytoid cells, were cultured in the presence of 10 ng/ml IFNγ for 2 days, and they were induced to differentiate into macrophage-like cells. The differentiation-induced THP-1 cells were recovered, and the cells (5×10^4 cells/well) were then allowed to react with a predetermined concentration of test compound at room temperature for 30 minutes. Thereafter, Escherichia coli (Life Technologies) labeled with a pH-sensitive dye (pHrodo) was subjected to opsonization using an anti-Escherichia coli antibody (Life Technologies). Then, the resultant was added to the THP-1 cells obtained above, followed by incubation at 37° C. for 3 hours. Opsonized Escherichia coli and cell-permeable fluorescent dye (Calcein AM) were simultaneously added thereto, followed by quantitative determination of phagocytosis of opsonized Escherichia coli in viable cells using an IN Cell Analyzer.

Assay [2] addresses T1, glutathione S-transferase (GST)-linked full-length human Syk protein (Homo sapiens, UniProt P43405).
T1 construct: glutathione S-transferase (GST)-linked full-length human Syk protein; purchased Carna Biosciences; host or cells: Baculovirus expression system
Nature of the assay: Syk enzyme assay. Format: biochemical. The settings on record: 0.83 nM Syk, time-resolved fluorescence; read-out: IC50 of Syk-inhibitory activity. The essentials:
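Phosphotyrosine on a biotin-peptide substrate (0.5 μM) was read by time-resolved fluorescence at 615 and 665 nm with Eu-anti-pTyr antibody and APC-streptavidin after 1 h EDTA stop.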

Assay [3] deals with THP-1 cells (TNFα secretion on human IgG-coated plate). As to the kind of experiment: TNFα generation assay. The class given is cell-based. The settings on record: IFN-γ differentiated THP-1 cells, 7 hours, AlphaLISA, read-out: IC50 of TNFα generation inhibitory activity. The essentials:
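THP-1 cells were differentiated with 10 ng/ml IFN-γ for 2 days, then preincubated with compound for 30 min at room temperature. They were then plated at 5×10^4 cells/well on plates coated with human IgG (10 μg/ml). TNFα secreted over 7 h of culture was quantified by AlphaLISA.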
A general note: Alpha assays give light when donor and acceptor beads are brought close together.

Where only a bound is given, the exact number is not on record here.

Results on 22 compounds are retold here after patent US9051310B2, “Nicotinamide derivative or salt thereof” (FUJIFILM Corporation, priority 2011, dated 2015).

Regarding `Cc1ncc(Nc2nc(N[C@@H]3CCOC[C@@H]3N)c(F)cc2C(N)=O)cc1-n1nccn1` [Example 2-214, 6-(((3R,4R)-3-aminotetrahydro-2H-pyran-4-yl)amino)-5-fluoro-2-((6-methyl-5-(2H-1,2,3-triazol-2-yl)pyridin-3-yl)amino)nicotinamide], the IC50 is 1000 to 3000 nM in assay [1], less than 10 nM in assay [2] and 65 to 130 nM in assay [3].
For `CC[C@H](N)[C@@H](C)Nc1nc(Nc2cncc3c2cnn3CC)c(C(N)=O)cc1F` [Example 2-325, 6-(((2R,3S)-3-aminopentan-2-yl)amino)-2-((1-ethyl-1H-pyrazolo[3,4-c]pyridin-4-yl)amino)-5-fluoronicotinamide], in that order: less than 1000 nM, less than 10 nM and 130 to 200 nM.
On to `CNc1ncc(Nc2nc(N[C@H](C3CCC3)[C@H](C)N)c(F)cc2C(N)=O)cc1F` [Example 2-275, 6-(((1R,2S)-2-amino-1-cyclobutylpropyl)amino)-5-fluoro-2-((5-fluoro-6-(methylamino)pyridin-3-yl)amino)nicotinamide], for which the IC50 in assay [1] lay within 1000 to 3000 nM; in assay [2] it was 10 to 50 nM; in assay [3], 130 to 200 nM.
On the same counts, the results for `Cc1ncc(Nc2nc(N[C@H](CC(C)C)[C@H](C)N)c(F)cc2C(N)=O)cc1F` [Example 2-224, 6-(((2S,3R)-2-amino-5-methylhexan-3-yl)amino)-5-fluoro-2-((5-fluoro-6-methylpyridin-3-yl)amino)nicotinamide] are 1000 to 3000 nM, less than 10 nM and 130 to 200 nM.
For `CCn1ncc2c(Nc3nc(N[C@@H]4CCOC[C@@H]4N)c(F)cc3C(N)=O)cncc21` [Example 2-317, 6-(((3R,4R)-3-aminotetrahydro-2H-pyran-4-yl)amino)-2-((1-ethyl-1H-pyrazolo[3,4-c]pyridin-4-yl)amino)-5-fluoronicotinamide], in that order: 1000 to 3000 nM, less than 10 nM and 65 to 130 nM.
On the same counts, the results for `COc1ncc(Nc2nc(N[C@H](CC(C)C)[C@H](C)N)c(F)cc2C(N)=O)cc1F` [Example 2-66, 6-(((2S,3R)-2-amino-5-methylhexan-3-yl)amino)-5-fluoro-2-((5-fluoro-6-methoxypyridin-3-yl)amino)nicotinamide] are less than 1000 nM, 10 to 50 nM and 130 to 200 nM.
In the case of `CCn1ncc2c(Nc3nc(N[C@H](CC(C)C)[C@H](C)N)c(F)cc3C(N)=O)cncc21` [Example 2-322, 6-(((2S,3R)-2-amino-5-methylhexan-3-yl)amino)-2-((1-ethyl-1H-pyrazolo[3,4-c]pyridin-4-yl)amino)-5-fluoronicotinamide], the IC50 in assay [1] was less than 1000 nM; in assay [2], less than 10 nM; in assay [3] it was 65 to 130 nM.
On the same counts, the results for `CCCC[C@@H](Nc1nc(Nc2cncc3c2cnn3CC)c(C(N)=O)cc1F)[C@H](C)N` [Example 2-321, 6-(((2S,3R)-2-aminoheptan-3-yl)amino)-2-((1-ethyl-1H-pyrazolo[3,4-c]pyridin-4-yl)amino)-5-fluoronicotinamide] are 1000 to 3000 nM, less than 10 nM and 130 to 200 nM.
For `CC[C@H](N)[C@@H](C)Nc1nc(Nc2ccc3c(c2)c(C)nn3CCOC)c(C(N)=O)cc1F` [Example 2-136, 6-(((2R,3S)-3-aminopentan-2-yl)amino)-5-fluoro-2-((1-(2-methoxyethyl)-3-methyl-1H-indazol-5-yl)amino)nicotinamide], in that order: 1000 to 3000 nM, 10 to 50 nM and 130 to 200 nM.
On the same counts, the results for `COCCn1nc(OC)c2cc(Nc3nc(N[C@H](CC(C)C)[C@H](C)N)c(F)cc3C(N)=O)ccc21` [Example 2-127, 6-(((2S,3R)-2-amino-5-methylhexan-3-yl)amino)-5-fluoro-2-((3-methoxy-1-(2-methoxyethyl)-1H-indazol-5-yl)amino)nicotinamide] are less than 1000 nM, less than 10 nM and 130 to 200 nM.
Turning to `CCC[C@@H](Nc1nc(Nc2cncc3c2cnn3CC)c(C(N)=O)cc1F)[C@H](C)N` [Example 2-319, 6-(((2S,3R)-2-aminohexan-3-yl)amino)-2-((1-ethyl-1H-pyrazolo[3,4-c]pyridin-4-yl)amino)-5-fluoronicotinamide], the IC50 in assay [1] is less than 1000 nM; in assay [2], less than 10 nM; in assay [3] it was 65 to 130 nM.
On the same counts, the results for `CC[C@@H](Nc1nc(Nc2ccc3c(c2)c(N(C)C)nn3C)c(C(N)=O)cc1F)[C@H](C)N` [Example 2-4] are 1000 to 3000 nM, less than 10 nM and 65 to 130 nM.
On the same counts, the results for `CCn1ncc2c(Nc3nc(N[C@H](C4CCC4)[C@H](C)N)c(F)cc3C(N)=O)cncc21` [Example 2-406, 6-(((1R,2S)-2-amino-1-cyclobutylpropyl)amino)-2-((1-ethyl-1H-pyrazolo[3,4-c]pyridin-4-yl)amino)-5-fluoronicotinamide] are 1000 to 3000 nM, less than 10 nM and 130 to 200 nM.
For `CC[C@H](N)[C@@H](C)Nc1nc(Nc2ccc3c(cnn3C)c2)c(C(N)=O)cc1F` [Example 2-40, 6-(((2R,3S)-3-aminopentan-2-yl)amino)-5-fluoro-2-((1-methyl-1H-indazol-5-yl)amino)nicotinamide], in that order: less than 1000 nM, less than 10 nM and less than 65 nM.
In the case of `CC(C)C[C@@H](Nc1nc(Nc2cncc(-n3cccn3)c2)c(C(N)=O)cc1F)[C@H](C)N` [Example 2-70, 2-((5-(1H-pyrazol-1-yl)pyridin-3-yl)amino)-6-(((2S,3R)-2-amino-5-methylhexan-3-yl)amino)-5-fluoronicotinamide], the IC50 is 1000 to 3000 nM in assay [1], less than 10 nM in assay [2] and 130 to 200 nM in assay [3].
For `CC[C@@H](Nc1nc(Nc2ccc3c(c2)c(OC)nn3CC)c(C(N)=O)cc1F)[C@H](C)N` [Example 2-52, 6-(((2S,3R)-2-aminopentan-3-yl)amino)-2-((1-ethyl-3-methoxy-1H-indazol-5-yl)amino)-5-fluoronicotinamide], in that order: less than 1000 nM, less than 10 nM and 130 to 200 nM.
For `COc1ncc(Nc2nc(N[C@H](C3CC3)[C@H](C)N)c(F)cc2C(N)=O)cc1-n1ccnn1` [Example 2-162, 6-(((1R,2S)-2-amino-1-cyclopropylpropyl)amino)-5-fluoro-2-((6-methoxy-5-(1H-1,2,3-triazol-1-yl)pyridin-3-yl)amino)nicotinamide], the IC50 lay in the range of 1000 to 3000 nM in assay [1], 10 to 50 nM in assay [2] and 130 to 200 nM in assay [3].
In the case of `C[C@H](N)[C@@H](CC1CC1)Nc1nc(Nc2cccc3c2cnn3CC(F)F)c(C(N)=O)cc1F` [Example 2-21, 6-(((2R,3S)-3-amino-1-cyclopropylbutan-2-yl)amino)-2-((1-(2,2-difluoroethyl)-1H-indazol-4-yl)amino)-5-fluoronicotinamide], the IC50 was less than 1000 nM in assay [1], less than 10 nM in assay [2] and 130 to 200 nM in assay [3].
As for `COc1nn(C)c2c(F)cc(Nc3nc(N[C@H](C4CCC4)[C@H](C)N)c(F)cc3C(N)=O)cc12` [Example 2-158, 6-(((1R,2S)-2-amino-1-cyclobutylpropyl)amino)-5-fluoro-2-((7-fluoro-3-methoxy-1-methyl-1H-indazol-5-yl)amino)nicotinamide], the IC50 in assay [1] is less than 1000 nM; in assay [2], less than 10 nM.
On the same counts, the results for `CCC[C@@H](Nc1nc(Nc2cnc(OC)c(-n3ccnn3)c2)c(C(N)=O)cc1F)[C@H](C)N` [Example 2-205, 6-(((2S,3R)-2-aminohexan-3-yl)amino)-5-fluoro-2-((6-methoxy-5-(1H-1,2,3-triazol-1-yl)pyridin-3-yl)amino)nicotinamide] are 1000 to 3000 nM and 10 to 50 nM.
On the same counts, the results for `CCOc1ncc(Nc2nc(N[C@H](C3CC3)[C@H](C)N)c(F)cc2C(N)=O)cc1-n1ccnn1` [Example 2-163, 6-(((1R,2S)-2-amino-1-cyclopropylpropyl)amino)-2-((6-ethoxy-5-(1H-1,2,3-triazol-1-yl)pyridin-3-yl)amino)-5-fluoronicotinamide] are 1000 to 3000 nM and 10 to 50 nM.
For `CC[C@H](N)[C@@H](C)Nc1nc(Nc2cc(F)c3c(c2)c(N(C)C)nn3C)c(C(N)=O)cc1F` [Example 2-194, 6-(((2R,3S)-3-aminopentan-2-yl)amino)-2-((3-(dimethylamino)-7-fluoro-1-methyl-1H-indazol-5-yl)amino)-5-fluoronicotinamide], in that order: 1000 to 3000 nM and less than 10 nM.
